Like-named read-outs stand apart in the source and are kept apart here.
How the values were obtained:
[1] = test system: SN40R2 (MDM2 amplified, p53 mutated osteosarcoma); assay: Protocol A: SN40R2 growth inhibition (SRB); conditions: 72 h; for IC50: read-out: SN40R2 IC50 (μM) (Protocol A); for inhibition at 30 µM: read-out: SN40R2 (Protocol A) % at concentration
[2] = test system: SJSA-1 (MDM2 amplified, p53 wild-type osteosarcoma); assay: Protocol A: SJSA-1 growth inhibition (SRB); conditions: Homo sapiens, SJSA-1, 72 h
[3] = test system: SJSA-1; assay: Protocol B: SJSA-1 CellTiter-Glo cell viability
[4] = test system: SN40R2; assay: Protocol B: SN40R2 CellTiter-Glo cell viability; conditions: 72 h
[5] = biological target: MDM2-p53 interaction (in vitro translated MDM2, biotinylated IP3 peptide) (Homo sapiens, UniProt Q00987); assay: MDM2-p53 interaction 96-well plate binding assay (ELISA)
MDM2-p53 interaction (in vitro translated MDM2, biotinylated IP3 peptide), sequence (Q00987 whole entry): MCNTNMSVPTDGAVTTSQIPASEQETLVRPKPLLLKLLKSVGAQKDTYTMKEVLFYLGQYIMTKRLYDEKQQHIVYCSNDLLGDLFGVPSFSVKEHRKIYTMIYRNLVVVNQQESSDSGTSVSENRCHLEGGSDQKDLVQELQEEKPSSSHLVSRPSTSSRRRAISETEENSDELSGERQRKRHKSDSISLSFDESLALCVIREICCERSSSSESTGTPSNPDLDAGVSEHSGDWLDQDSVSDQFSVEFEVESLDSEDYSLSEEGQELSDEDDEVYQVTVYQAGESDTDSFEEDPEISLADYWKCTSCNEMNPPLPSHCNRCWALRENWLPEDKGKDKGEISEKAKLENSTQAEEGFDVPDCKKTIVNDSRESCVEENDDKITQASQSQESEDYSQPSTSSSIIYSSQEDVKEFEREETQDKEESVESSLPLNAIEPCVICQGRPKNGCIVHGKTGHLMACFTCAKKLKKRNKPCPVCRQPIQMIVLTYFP

[6] = read-out: SJSA-1 IC50 (μM) (Protocol A), SJSA-1, Protocol A (SRB), 72 hrs
[7] = Homo sapiens, SJSA-1, 72 h, read-out: SJSA1 IC50 (μM) (Protocol B), SJSA-1, Protocol B (CellTiter-Glo), 72 hrs
[8] = read-out: SN40R2 IC50 (Protocol B), SN40R2 cells, CellTiter-Glo, 72 hrs
[9] = Homo sapiens, SJSA-1, 72 h, read-out: SJSA1 IC50 (Protocol B), SJSA-1 cells, CellTiter-Glo, 72 hrs
[10] = read-out: SJSA1 IC50 (Protocol B), SJSA-1 cells, CellTiter-Glo, 72 hrs
[11] = read-out: SJSA-1 IC50 (Protocol A), SJSA-1 cells, SRB, 72 hrs

SMILES | IC50 [1] [µM] | IC50 [2, 6] [µM] | IC50 [3, 7] [µM] | other results
CN1CCC(C(C)(O)c2cc(F)c3c(c2)C(=O)N(Cc2ncc(Cl)cn2)[C@@]3(OCC2(F)COC2)c2ccc(Cl)cc2)CC1 (single isomer, unassigned) [Example 558] | 35 | 0.22 | 0.082 | –
CO[C@]1(c2ccc(Cl)cc2)c2c(F)cc(C(C)(O)C3CN(C)C3)cc2C(=O)N1Cc1ccc(Cl)cn1 (single isomer, unassigned) [Example 307] | – | – | – | IC50 [4, 8]: 11 µM; IC50 [3, 9]: 1.9 µM
CO[C@]1(c2ccc(Cl)cc2)c2c(F)cc(C(C)(O)c3cn(C)c(C)n3)cc2C(=O)N1Cc1ccc(Cl)cn1 (single isomer, unassigned) [Example 162] | – | – | – | IC50 [4, 8]: 13 µM; IC50 [3, 10]: 0.22 µM
CCC(O)(c1cc(F)c2c(c1)C(=O)N(Cc1ncc(C#N)cn1)[C@@]2(O[C@H]1CCOC1)c1ccc(Cl)cc1)C1(F)CCN(C)CC1 (single isomer, unassigned) [Example 561] | 26 | 0.021 | 0.065 | –
CCC(O)(c1cc(F)c2c(c1)C(=O)N(Cc1ncc(Cl)cn1)[C@@]2(O[C@H]1CCOC1)c1ccc(Cl)cc1)C1(F)CCN(C)CC1 (single isomer, unassigned) [Example 571] | 17 | 0.023 | 0.0085 | –
CO[C@]1(c2ccc(Cl)cc2)c2c(F)cc(C(C)(O)C3CCN(c4ncccn4)CC3)cc2C(=O)N1Cc1ccc(Cl)cn1 (stereo partly drawn) [Example 286, (3R)-3-(4-chlorophenyl)-2-[(5-chloropyridin-2-yl)methyl]-4-fluoro-6-{1-hydroxy-1-[1-(pyrimidin-2-yl)piperidin-4-yl]ethyl}-3-methoxy-2,3-dihydro-1H-isoindol-1-one] | – | – | – | IC50 [4, 8]: 12 µM
CC(O)(c1cc(F)c2c(c1)C(=O)N(Cc1ccc(Cl)cn1)[C@@]2(OCC1(C#N)CC1)c1ccc(Cl)cc1)C1CCN(CCO)CC1 (single isomer, unassigned) [Example 420] | – | – | – | IC50 ([4]; read-out: SN40R2 IC50 (Protocol B)): 4.4 µM; IC50 [3, 9]: 0.87 µM
CO[C@]1(c2ccc(Cl)cc2)c2c(F)cc(C(C)(O)C3CCN(C(=O)CN(C)C)CC3)cc2C(=O)N1Cc1ccc(Cl)cn1 (stereo partly drawn) [Example 299, (3R)-3-(4-chlorophenyl)-2-[(5-chloropyridin-2-yl)methyl]-6-(1-{1-[2-(dimethylamino)acetyl]piperidin-4-yl}-1-hydroxyethyl)-4-fluoro-3-methoxy-2,3-dihydro-1H-isoindol-1-one] | – | – | – | IC50 [4, 8]: 8 µM; IC50 [3, 9]: 2 µM
CCC(O)(c1cc(F)c2c(c1)C(=O)N(Cc1ncc(C#N)cn1)[C@@]2(OCC1(C#N)CC1)c1ccc(Cl)cc1)C1(F)CCN(C)CC1 (single isomer, unassigned) [Example 574] | 17 | 0.021 | 0.016 | –
CCC(O)(c1cc(F)c2c(c1)C(=O)N(Cc1ncc(C#N)cn1)[C@@]2(OC)c1ccc(Cl)cc1)[C@H]1CC[C@H](O)CC1 (stereo partly drawn) [Example 504, 2-{[(1R)-1-(4-chlorophenyl)-7-fluoro-5-{1-hydroxy-1-[trans-4-hydroxycyclohexyl]propyl}-1-methoxy-3-oxo-2,3-dihydro-1H-isoindol-2-yl]methyl}pyrimidine-5-carbonitrile] | 48 | 0.039 | 0.034 | –
CO[C@]1(c2ccc(Cl)cc2)c2c(F)cc(C(C)(O)c3nccs3)cc2C(=O)N1Cc1ccc(Cl)cn1 (stereo partly drawn) [Example 165, (3R)-3-(4-Chlorophenyl)-2-[(5-chloropyridin-2-yl)methyl]-4-fluoro-6-[1-hydroxy-1-(1,3-thiazol-2-yl)ethyl]-3-methoxy-2,3-dihydro-1H-isoindol-1-one] | – | – | – | IC50 [4, 8]: 13 µM; IC50 [3, 10]: 1.4 µM
[2H]C([2H])(O)C1(C([2H])([2H])O[C@]2(c3ccc(Cl)cc3)c3c(F)cc(C(C)(C)O)cc3C(=O)N2Cc2ccc(C#N)cn2)CC1 [Example 5, 6-{[(1R)-1-(4-Chlorophenyl)-7-fluoro-1-({1-[hydroxy(^2H2)methyl]cyclopropyl}(^2H2)methoxy)-5-(2-hydroxypropan-2-yl)-3-oxo-2,3-dihydro-1H-isoindol-2-yl]methyl}pyridine-3-carbonitrile] | – | – | – | inhibition at 30 µM [1]: 20%; IC50 [2, 11]: 0.2 µM; IC50 [3, 9]: 0.28 µM; IC50 [5]: 3.8 nM
CCC(O)(c1cc(F)c2c(c1)C(=O)N(Cc1ccc(C#N)cn1)[C@@]2(O[C@H]1CCOC1)c1ccc(Cl)cc1)c1ccn(C)n1 (single isomer, unassigned) [Example 336] | 42 | 0.1 | – | –
CC[C@@](O)(c1cc(F)c2c(c1)C(=O)N(Cc1ncc(Cl)cn1)[C@@]2(OCC1(CO)CC1)c1ccc(Cl)cc1)C1CCN(C)CC1 [Example 556, (3R)-3-(4-chlorophenyl)-2-[(5-chloropyrimidin-2-yl)methyl]-4-fluoro-6-[(1S)-1-hydroxy-1-(1-methylpiperidin-4-yl)propyl]-3-{[1-(hydroxymethyl)cyclopropyl]methoxy}-2,3-dihydro-1H-isoindol-1-one] | 27 | 0.056 | 0.0064 | –
CCC(O)(c1cc(F)c2c(c1)C(=O)N(Cc1ccc(C#N)cn1)[C@@]2(OC)c1ccc(Cl)cc1)[C@H]1CC[C@H](O)CC1 (single isomer, unassigned) [Example 521] | 37 | 0.035 | 0.033 | –
CC(C)(O)c1cc(F)c2c(c1)C(=O)N(Cc1ccc(C#N)cn1)[C@@]2(OCC1(CO)CC1)c1ccc(Cl)cc1 [Example 36, 6-{[(1R)-1-(4-chlorophenyl)-7-fluoro-1-{[1-(hydroxymethyl)cyclopropyl]methoxy}-5-(2-hydroxypropan-2-yl)-3-oxo-2,3-dihydro-1H-isoindol-2-yl]methyl}pyridine-3-carbonitrile] | – | – | – | inhibition at 30 µM [1]: 13%; IC50 [2, 11]: 0.21 µM; IC50 [3, 9]: 0.18 µM; IC50 [5]: 5.1 nM
CCC(O)(c1cc(F)c2c(c1)C(=O)N(Cc1ccc(C#N)cn1)[C@@]2(O[C@H]1CCOC1)c1ccc(Cl)cc1)C1(F)CCOCC1 (single isomer, unassigned) [Example 446] | 29 | – | – | IC50 ([3]; read-out: SJSA1 IC50 (μM) (Protocol B), SJSA-1, Protocol B (CellTiter-Glo), 72 hrs): 0.023 µM; MDM2 % @ concentration ([5]; @ 0.0010 μM): 76% @ 0.0010
CO[C@]1(c2ccc(Cl)cc2)c2c(F)cc(C(C)(O)C3CCN(C)CC3)cc2C(=O)N1Cc1ccc(Cl)cn1 (single isomer, unassigned) [Example 304] | – | – | – | IC50 [4, 8]: 9 µM
CO[C@]1(c2ccc(Cl)cc2)c2c(F)cc(C(C)(O)c3cnn(C4CN(C(=O)OC(C)(C)C)C4)c3)cc2C(=O)N1Cc1ccc(Cl)cn1 (single isomer, unassigned) [Example 458] | – | – | – | IC50 ([4]; read-out: SN40R2 IC50 (μM) (Protocol B)): 12 µM

The next lines start with results.

IC50 [1] [µM] | IC50 [2, 6] [µM] | IC50 [3, 7] [µM] | SMILES | other results
21 | 0.028 | 0.02 | CCC(O)(c1cc(F)c2c(c1)C(=O)N(Cc1ncc(Cl)cn1)[C@@]2(OC)c1ccc(Cl)cc1)C1(F)CCN(C2COC2)CC1 (single isomer, unassigned) [Example 552] | –
21 | 0.028 | 0.066 | CCC(O)(c1cc(F)c2c(c1)C(=O)N(Cc1ncc(C#N)cn1)[C@@]2(OC)c1ccc(Cl)cc1)C1(F)CCN(C)CC1 (single isomer, unassigned) [Example 575] | –
18 | 0.041 | 0.012 | CCC(O)(c1cc(F)c2c(c1)C(=O)N(Cc1ncc(Cl)cn1)[C@@]2(O[C@H]1CCOC1)c1ccc(Cl)cc1)C1CCN(C)CC1 (single isomer, unassigned) [Example 449] | –
36 | 0.031 | – | CC[C@@](O)(c1cc(F)c2c(c1)C(=O)N(Cc1ncc(Cl)cn1)[C@@]2(OC)c1ccc(Cl)cc1)C1CCN(C2COC2)CC1 [Example 551, (3R)-3-(4-chlorophenyl)-2-[(5-chloropyrimidin-2-yl)methyl]-4-fluoro-6-[(1S)-1-hydroxy-1-[1-(oxetan-3-yl)piperidin-4-yl]propyl]-3-methoxy-2,3-dihydro-1H-isoindol-1-one] | –
45 | 0.039 | 0.046 | CCC(O)(c1cc(F)c2c(c1)C(=O)N(Cc1ccc(C#N)cn1)[C@@]2(OC[C@@H](C)O)c1ccc(Cl)cc1)C1(F)CCOCC1 (single isomer, unassigned) [Example 497] | –
6.3 | 0.14 | 0.17 | CCC(O)(c1cc(F)c2c(c1)C(=O)N(Cc1ccc(Cl)cn1)[C@@]2(O[C@H]1CCOC1)c1ccc(Cl)cc1)C1(F)CCNCC1 (single isomer, unassigned) [Example 548] | –
7.4 | 0.032 | 0.041 | CCC(O)(c1cc(F)c2c(c1)C(=O)N(Cc1ncc(Cl)cn1)[C@@]2(OC)c1ccc(Cl)cc1)C1(F)CCNCC1 (single isomer, unassigned) [Example 544] | –
33 | 0.045 | 0.035 | CCC(O)(c1cc(F)c2c(c1)C(=O)N(Cc1ncc(Cl)cn1)[C@@]2(OCCO)c1ccc(Cl)cc1)C1(F)CCN(C)CC1 (single isomer, unassigned) [Example 565] | –
27 | 0.12 | 0.025 | CCC(O)(c1cc(F)c2c(c1)C(=O)N(Cc1ncc(Cl)cc1O)[C@@]2(O[C@H]1C[C@@H](O)C1)c1ccc(Cl)cc1)c1cn(C)cn1 (single isomer, unassigned) [Example 487] | –

— patent publication US10526311B2 (ASTEX THERAPEUTICS LIMITED, priority 2015, dated 2020)
